Experiments:
Assay in all cases: MIC of compounds alone and combined with antibacterials, broth microdilution (CLSI)
Format in all cases: cell-based
[1] = system: Serratia marcescens (SMA) isolates
Procedure, shortened: (§1)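 Log-phase isolates were inoculated at a final 5.10^5 CFU/mL in cation-adjusted Mueller-Hinton broth and incubated 16-20 h at 35° C in ambient air. MIC was the lowest concentration preventing visible growth; for combinations, the antibacterial MIC was read at each compound concentration.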

[2] = system: Citrobacter koseri (CKR) isolates
Procedure, shortened: as §1

[3] = system: Citrobacter freundii (CFR) isolates
Procedure, shortened: as §1

## C=CC1=C(C(=O)O)N2C(=O)[C@@H](NC(=O)/C(=N\OCC(=O)O)c3csc(N)n3)[C@H]2SC1 [FIX, Cefixime]
[1]; SMA UFR30, AF2 @ 8 μg/mL
  MIC ATB in combination: 0.5 µg/mL
[1]; SMA UFR30, AF3 @ 8 μg/mL
  MIC ATB in combination: <=0.25 μg/mL
[1]; SMA UFR30, CLA @ 4 μg/mL
  MIC ATB in combination: 1 µg/mL
[1]; SMA UFR134, AF2 @ 8 μg/mL
  MIC ATB in combination: 0.5 µg/mL
[1]; SMA UFR134, AF3 @ 8 μg/mL
  MIC ATB in combination: <=0.25 μg/mL
[1]; SMA UFR134, CLA @ 4 μg/mL
  MIC ATB in combination: 32 µg/mL
[1]; SMA UFR135, AF2 @ 8 μg/mL
  MIC ATB in combination: 2 µg/mL
[1]; SMA UFR135, AF3 @ 8 μg/mL
  MIC ATB in combination: 2 µg/mL
[1]; SMA UFR135, CLA @ 4 μg/mL
  MIC ATB in combination: 32 µg/mL
[1]; SMA UFR136, AF2 @ 8 μg/mL
  MIC ATB in combination: 4 µg/mL
[1]; SMA UFR136, AF3 @ 8 μg/mL
  MIC ATB in combination: 4 µg/mL
[1]; SMA UFR136, CLA @ 4 μg/mL
  MIC ATB in combination: >128 µg/mL
[1]; SMA UFR137, AF2 @ 8 μg/mL
  MIC ATB in combination: <=0.25 μg/mL
[1]; SMA UFR137, AF3 @ 8 μg/mL
  MIC ATB in combination: <=0.25 μg/mL
[1]; SMA UFR137, CLA @ 4 μg/mL
  MIC ATB in combination: 1 µg/mL
[1]; SMA UFR138, AF2 @ 8 μg/mL
  MIC ATB in combination: <=0.25 μg/mL
[1]; SMA UFR138, AF3 @ 8 μg/mL
  MIC ATB in combination: <=0.25 μg/mL
[1]; SMA UFR138, CLA @ 4 μg/mL
  MIC ATB in combination: 0.5 µg/mL
[1]; SMA UFR139, AF2 @ 8 μg/mL
  MIC ATB in combination: 1 µg/mL
[1]; SMA UFR139, AF3 @ 8 μg/mL
  MIC ATB in combination: <=0.25 μg/mL
[1]; SMA UFR139, CLA @ 4 μg/mL
  MIC ATB in combination: 2 µg/mL
[1]; SMA UFR141, AF2 @ 8 μg/mL
  MIC ATB in combination: <=0.25 μg/mL
[1]; SMA UFR141, AF3 @ 8 μg/mL
  MIC ATB in combination: 0.5 µg/mL
[1]; SMA UFR141, CLA @ 4 μg/mL
  MIC ATB in combination: 0.5 µg/mL
[1]; SMA UFR142, AF2 @ 8 μg/mL
  MIC ATB in combination: 0.5 µg/mL
[1]; SMA UFR142, AF3 @ 8 μg/mL
  MIC ATB in combination: 1 µg/mL
[1]; SMA UFR142, CLA @ 4 μg/mL
  MIC ATB in combination: 2 µg/mL
[1]; SMA UFR143, AF2 @ 8 μg/mL
  MIC ATB in combination: <=0.25 μg/mL
[1]; SMA UFR143, AF3 @ 8 μg/mL
  MIC ATB in combination: <=0.25 μg/mL
[1]; SMA UFR143, CLA @ 4 μg/mL
  MIC ATB in combination: 64 µg/mL
[1]; SMA UFR239, AF2 @ 8 μg/mL
  MIC ATB in combination: 0.25 µg/mL
[1]; SMA UFR239, AF3 @ 8 μg/mL
  MIC ATB in combination: <=0.25 μg/mL
[1]; SMA UFR239, CLA @ 4 μg/mL
  MIC ATB in combination: 2 µg/mL
[1]; strain SMA UFR30, genotype OXA-405
  MIC: 1 µg/mL
[1]; strain SMA UFR134, genotype TEM-1, BES-1
  MIC: >128 µg/mL
[1]; strain SMA UFR135, genotype TEM-1, KPC-2
  MIC: 64 µg/mL
[1]; strain SMA UFR136, genotype TEM-1, SHV-12, KPC-2
  MIC: >128 µg/mL
[1]; strain SMA UFR137, genotype SME-1
  MIC: 0.5 µg/mL
[1]; strain SMA UFR138, genotype SME-1
  MIC: 0.5 µg/mL
[1]; strain SMA UFR139, genotype SME-2
  MIC: 1 µg/mL
[1]; strain SMA UFR140, genotype IMP-1
  MIC: >128 µg/mL
[1]; strain SMA UFR140, with AF2 @ 8 μg/mL
  MIC ATB in combination: >128 µg/mL
[1]; strain SMA UFR140, with AF3 @ 8 μg/mL
  MIC ATB in combination: >128 µg/mL
[1]; strain SMA UFR140, with CLA @ 4 μg/mL
  MIC ATB in combination: >128 µg/mL
[1]; strain SMA UFR141, genotype OXA-48
  MIC: 2 µg/mL
[1]; strain SMA UFR142, genotype OXA-48
  MIC: 2 µg/mL
[1]; strain SMA UFR143, compound alone
  MIC: 512 µg/mL
[1]; strain SMA UFR143, genotype CTX-M-15, OXA-1, OXA-48
  MIC: 512 µg/mL
[1]; strain SMA UFR238, genotype OXA-48
  MIC: 1 µg/mL
[1]; strain SMA UFR238, with AF2 @ 8 μg/mL
  MIC ATB in combination: 0.5 µg/mL
[1]; strain SMA UFR238, with AF3 @ 8 μg/mL
  MIC ATB in combination: 0.5 µg/mL
[1]; strain SMA UFR238, with CLA @ 4 μg/mL
  MIC ATB in combination: 2 µg/mL
[1]; strain SMA UFR239, genotype ESAC
  MIC: 2 µg/mL
[2]; CKO ROU, AF2 @ 8 μg/mL
  MIC ATB in combination: 0.5 µg/mL
[2]; CKO ROU, AF3 @ 8 μg/mL
  MIC ATB in combination: 1 µg/mL
[2]; CKO ROU, CLA @ 4 μg/mL
  MIC ATB in combination: 2 µg/mL
[2]; CKO UFR149, AF2 @ 8 μg/mL
  MIC ATB in combination: <0.25 µg/mL
[2]; CKO UFR149, AF3 @ 8 μg/mL
  MIC ATB in combination: <0.25 µg/mL
[2]; CKO UFR149, CLA @ 4 μg/mL
  MIC ATB in combination: 1 µg/mL
[2]; CKO UFR150, AF2 @ 8 μg/mL
  MIC ATB in combination: 2 µg/mL
[2]; CKO UFR150, AF3 @ 8 μg/mL
  MIC ATB in combination: 2 µg/mL
[2]; CKO UFR150, CLA @ 4 μg/mL
  MIC ATB in combination: 2 µg/mL
[2]; strain CKO ROU, genotype TEM-1, SHV-12, CTX-M-15, OXA-1, OXA-48
  MIC: 1 µg/mL
[2]; strain CKO UFR149, genotype OXA-48
  MIC: 0.5 µg/mL
[2]; strain CKO UFR150, genotype TEM-1, OXA-48
  MIC: 2 µg/mL
[3]; CFR UFR10, AF2 @ 8 μg/mL
  MIC ATB in combination: <0.25 µg/mL
[3]; CFR UFR10, AF3 @ 8 μg/mL
  MIC ATB in combination: <=0.25 μg/mL
[3]; CFR UFR10, CLA @ 4 μg/mL
  MIC ATB in combination: 32 µg/mL
[3]; CFR UFR11, AF2 @ 8 μg/mL
  MIC ATB in combination: 16 µg/mL
[3]; CFR UFR11, AF3 @ 8 μg/mL
  MIC ATB in combination: 32 µg/mL
[3]; CFR UFR11, CLA @ 4 μg/mL
  MIC ATB in combination: 32 µg/mL
[3]; CFR UFR37, AF2 @ 8 μg/mL
  MIC ATB in combination: <=0.25 μg/mL
[3]; CFR UFR37, AF3 @ 8 μg/mL
  MIC ATB in combination: <=0.25 μg/mL
[3]; CFR UFR37, CLA @ 4 μg/mL
  MIC ATB in combination: >128 µg/mL
[3]; CFR UFR83, AF2 @ 8 μg/mL
  MIC ATB in combination: >128 µg/mL
[3]; CFR UFR83, AF3 @ 8 μg/mL
  MIC ATB in combination: >128 µg/mL
[3]; CFR UFR83, CLA @ 4 μg/mL
  MIC ATB in combination: >128 µg/mL
[3]; CFR UFR146, AF2 @ 8 μg/mL
  MIC ATB in combination: 2 µg/mL
[3]; CFR UFR146, AF3 @ 8 μg/mL
  MIC ATB in combination: 1 µg/mL
[3]; CFR UFR146, CLA @ 4 μg/mL
  MIC ATB in combination: 64 µg/mL
[3]; CFR UFR248, AF2 @ 8 μg/mL
  MIC ATB in combination: <0.25 µg/mL
[3]; CFR UFR248, AF3 @ 8 μg/mL
  MIC ATB in combination: <=0.25 μg/mL
[3]; CFR UFR248, CLA @ 4 μg/mL
  MIC ATB in combination: 4 µg/mL
[3]; CFR UFR249, AF2 @ 8 μg/mL
  MIC ATB in combination: <=0.25 μg/mL
[3]; CFR UFR249, AF3 @ 8 μg/mL
  MIC ATB in combination: <=0.25 μg/mL
[3]; CFR UFR249, CLA @ 4 μg/mL
  MIC ATB in combination: 2 µg/mL
[3]; CFR UFR250, AF2 @ 8 μg/mL
  MIC ATB in combination: <0.25 µg/mL
[3]; CFR UFR250, AF3 @ 8 μg/mL
  MIC ATB in combination: <0.25 µg/mL
[3]; CFR UFR250, CLA @ 4 μg/mL
  MIC ATB in combination: 2 µg/mL
[3]; strain CFR UFR10, genotype OXA-48
  MIC: >128 µg/mL
[3]; strain CFR UFR11, genotype TEM-1, OXA-1, OXA-48
  MIC: 32 µg/mL
[3]; strain CFR UFR37, genotype TEM-1, CTX-M-15, NDM-1
  MIC: >128 µg/mL
[3]; strain CFR UFR83, genotype TEM-3, AmpC
  MIC: >128 µg/mL
[3]; strain CFR UFR146, genotype TEM-1, KPC-2
  MIC: 64 µg/mL
[3]; strain CFR UFR147, genotype TEM-1, CTX-M-15, OXA-1, OXA-181, OXA-10, OXA-9, NDM-1, ArmA, dfrA12, aadA2, antibiotic alone
  MIC: >128 µg/mL
[3]; strain CFR UFR147, with AF2 @ 8 μg/mL
  MIC ATB in combination: <0.25 µg/mL
[3]; strain CFR UFR147, with AF3 @ 8 μg/mL
  MIC ATB in combination: <0.25 µg/mL
[3]; strain CFR UFR147, with CLA @ 4 μg/mL
  MIC ATB in combination: >128 µg/mL
[3]; strain CFR UFR148, genotype TEM-1, TEM-2, CTX-M-15, NDM-1, antibiotic alone
  MIC: >128 µg/mL
[3]; strain CFR UFR148, with AF2 @ 8 μg/mL
  MIC ATB in combination: <0.25 µg/mL
[3]; strain CFR UFR148, with AF3 @ 8 μg/mL
  MIC ATB in combination: <0.25 µg/mL
[3]; strain CFR UFR148, with CLA @ 4 μg/mL
  MIC ATB in combination: >128 µg/mL
[3]; strain CFR UFR248, genotype CTX-M-15
  MIC: >128 µg/mL

From US20200017495A1, “NOVEL HETEROCYCLIC COMPOUNDS AND THEIR USE IN PREVENTING OR TREATING BACTERIAL INFECTIONS” (priority 2017, published 2020)
